For one data set, the target named is T1, GHS-R (Homo sapiens, UniProt Q92847).
T1 construct: host or cells: GHS-R-expressing cells (printed 'GSH-R-expressing cells')
Kind of data set: Ghrelin/GHS-R binding activity, radioligand binding using GHS-R-expressing cells (S1 Fig). Conditions: n = 3, S1 Fig. The method, then: Supplementary file pone.0133159.s004.tif: S1 Fig Effect of atractylodin and atractylodin carboxylic acid on ghrelin/GHS-R binding activity. Radioligand binding was performed using GSH-R-expressing cells (n = 3). (TIF) Click here for additional data file.

Data set [1] in a line: Dose proportionality (linearity) test by power model for C max and AUC0-last. Conditions: for Dose proportionality test using power model, Inference: linear when 90% CI of β included 1, CIlower ≥0.8, and CIupper ≤1.25; for Dose proportionality test using power model, β: rikkunshito 2.5, 5.0 or 7.5 g.
Procedure: The dose proportionality was analyzed via a power model [21, 22]. […] Evaluation of linearity of the dosage-exposure relationship was conducted with Phoenix WinNonlin and SAS 9.2 (SAS Institute, Inc., Cary, NC).
A short description of data set [2]: Randomized crossover quantitative trial: plasma pharmacokinetics of nine ingredients after rikkunshito 2.5, 5.0 or 7.5 g. The note with it: for AUC(0-t) / Cmax / Tmax / half-life: human, plasma, po; for AUC(0-t): AUC0-last; for AUC(0-t) / Cmax / half-life / t 1/2: geometric mean (95% CI); for Cmax: C max; for Tmax: Median t max (range); for Tmax / Median t max (range): median (minimum–maximum). The text has this:
The first trial was a nonrandomized, open-label, one-period design. The second trial was a randomized, open-label, three-arm, three-period design (Fig 1). With respect to inclusion criteria, the studies included healthy Japanese adults between 20 and 45 years of age with a body mass index between 18 and 25 who were willing and able to comply with the study requirements. Exclusion criteria for this study included a history of significant liver, heart, or vessel disease and consumption of supplements that contained any rikkunshito ingredients or any drug within 3 days to 1 week before the first dose. Other standard exclusion criteria included relevant allergies, pregnant or nursing females, and any alcohol or nicotine use. The sample size was set as more than 15 based on the Ministry of Health, Labour and Welfare’s guidelines. Subjects allocated to a screening test were randomized to one of three groups by the central allocation system (allocation ratio 1:1:1). A random sequence was generated using a computer. The safety endpoint was evaluated in all volunteers. This endpoint was defined on the basis of a physician’s judgement after examination or observation that a serious adverse event had occurred. Adverse events included death, a life-threatening event, an event requiring hospitalization for treatment or an extended stay in hospital, an event resulting in permanent or temporary disability or dysfunction, an event resulting in a congenital abnormality, or any other serious medical phenomenon. With respect to side effects, no specific conditions were defined, and all adverse events for which no causal relationship with the drug could be excluded were deemed to be side effects. In each stage during the 48-h period following rikkunshito administration, the physician monitored the patient for subjective symptoms, objective findings, swelling, body temperature (axillary), blood pressure (sitting), and pulse (sitting). The physician also conducted a hematological examination to measure the patient’s red blood cell, leucocyte and platelet counts, hemoglobin level, and hematocrit value. A biochemical examination was conducted to determine total protein, blood urea nitrogen, creatinine, uric acid, aspartate aminotransferase, alanine aminotransferase, total bilirubin, alkaline phosphatase, γ-glutamyltranspeptidase albumin, prothrombin time, total cholesterol, C-reactive protein, and potassium to identify any abnormalities in comparison with the subject’s condition prior to administration. All participants fasted for 12 h before administration and 4 h after administration of the study drug.
In the second quantitative trial, 12-mL blood samples were collected at 0 (preadministration), 0.25, 0.5, 1, 2, 3, 4, 6, 8, 10, 12, 24, and 48 h after a single oral administration of rikkunshito (Lot H05142). A total of 3 daily doses were used in this trial, i.e., the clinical dose per administration (2.5 g) as the lowest dose, the clinical daily dose (7.5 g) as the highest dose, and an intermediate dose (5.0 g), to broadly discuss the pharmacokinetic characteristics of the ingredients measured. The trial participants were hospitalized overnight on the day they ingested rikkunshito, and returned home the following day after blood samples were collected at the 24-h time point. The participants returned to the hospital to provide blood samples at 48 h. The blood was immediately centrifuged at 1700 ×g for 15 min to obtain plasma. Plasma fractions were stored at −20°C or lower until analysis.
Plasma, urine, and rikkunshito formulation samples were analyzed for rikkunshito ingredients concentrations using a liquid chromatography–mass spectrometry with tandem mass spectrometer assay (LC–MS/MS; API5000, Triple Quad 6500, or QTRAP5500; AB Sciex, Tokyo, Japan) or gas chromatography–mass spectrometry. Further information of analytical methods can be found at S1 Appendix.

Setting [3] is: 2.5 g, rikkunshito 2.5 g single oral, n = 21.
Setting [4] is: 5 g, rikkunshito 5.0 g single oral, n = 19.
The mark [5] stands for this setting: 7.5 g, rikkunshito 7.5 g single oral, n = 19.
Where [6] appears, read: rikkunshito 7.5 g single oral, n = 19.
Setting [7] is: rikkunshito 7.5 g single oral, n = 19, listed as atractylodin carboxylic acid.

T1 sequence (Q92847 whole entry, species assumed): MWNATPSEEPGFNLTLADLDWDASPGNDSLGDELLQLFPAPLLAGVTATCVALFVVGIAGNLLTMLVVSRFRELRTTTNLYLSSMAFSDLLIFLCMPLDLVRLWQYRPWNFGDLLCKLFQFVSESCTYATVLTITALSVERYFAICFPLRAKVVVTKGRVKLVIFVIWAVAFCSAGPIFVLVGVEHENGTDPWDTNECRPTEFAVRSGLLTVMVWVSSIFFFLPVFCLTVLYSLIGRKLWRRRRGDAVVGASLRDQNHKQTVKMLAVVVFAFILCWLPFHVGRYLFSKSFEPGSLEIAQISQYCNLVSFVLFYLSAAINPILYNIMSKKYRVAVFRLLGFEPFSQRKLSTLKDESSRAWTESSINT

As a reminder, the AUC(0-t) is the area under the concentration-time curve up to a stated or last time point. The Cmax is the peak of the concentration-time curve. The Tmax is the time from dosing to the highest level. For orientation: half-life means the time in which the quantity being followed falls by half. Low readings indicate rapid decline, high ones slow decline. Take `O=C(O)/C=C/C#CC#C/C=C/c1ccco1` [Atractylodin carboxylic acid]: the “Ghrelin/GHS-R binding (ghrelin signal enhancement) activity compared with atractylodin” value at GHS-R is listed as “as potent as atractylodin”. Besides, the “Dose proportionality test using power model, Inference” value in data set [1] (AUC0-last) and in data set [1] (Cmax) was “Linear” throughout. For the same molecule, the “Dose proportionality test using power model, β” value in data set [1] (AUC0-last) is given as 1.08; in data set [1] (Cmax), 1.05. Further, the “C max of metabolite relative to unchanged form (atractylodin)” value in data set [2] (after administration of 7.5 g rikkunshito) is 5.7–31.5 fold. Further, the results for the AUC(0-t) in data set [2] (setting [3]), in data set [2] (setting [4]) and in data set [2] (setting [5]) were 3.91 ng·h/mL, 8.74 ng·h/mL and 12.7 ng·h/mL, respectively. Further, the Cmax in data set [2] (setting [3]) came out at 4.45 ng/mL; in data set [2] (setting [4]), 9.57 ng/mL; in data set [2] (setting [5]) it was 14.3 ng/mL. The Tmax in data set [2] (setting [3]) and in data set [2] (setting [4]) was 15 min in each case. Moreover, the half-life was 34.8 min in data set [2] (2.5 g, t 1/2, rikkunshito 2.5 g single oral, n = 21) and 38.2 min in data set [2] (5 g, t 1/2, rikkunshito 5.0 g single oral, n = 19). In addition, the entries for the “t 1/2” value in data set [2] (setting [6]) and in data set [2] (setting [7]) were 0.663 (0.560–0.790) h and < 10 h, respectively. The “Median t max (range)” value in data set [2] (setting [6]) is 0.250 (0.250–0.500) h; in data set [2] (setting [7]) it was ≤ 1 h.
